Measured values from patent US10174067B2, “Type of cytidine derivative and application thereof” (priority 2014, dated 2019).
Marks after values point to notes of the source that are not given here.

Legend:
[1] = tested on: HCT-116 colon cancer xenografts; assay: Tumor growth inhibition of HCT-116 colon cancer xenografts in tumor-bearing nude mice (tumor volume, TGI %, RTV, T/C %); type: in vivo, Balb/c Nude mice
Protocol: 4.1 Tumor cells: colon cancer HCT-116 cells, purchased from the Institute of Cell Biology, Chinese Academy of Sciences. The cells were incubated by F-12 medium (containing 10% FBS) in carbon dioxide incubator at 37° C. and in saturated humidity, with 5% CO2 and 95% air in volume fraction. Before inoculation, the cells at logarithmic phase were taken, and digested with 0.25% trypsin, washed once with PBS and resuspended in PBS for counting. The cells were resuspended in serum-free medium and adjusted to about 3×10^7 cell/mL.
The grouping is as follows:
The formations of tumor at the inoculation site of each group of nude mice were observed. The diameter of tumor nodule (D) was measured three times a week with round hole ruler, and the volume of tumor nodule (V) was calculated according to the following formula: […].
Anti-tumor activity was evaluated by tumor growth inhibition rate TGI (%) and relative tumor proliferation rate T/C (%).
The relative tumor volume (RTV) was calculated as: RTV=Vt/V0, where V0 was the tumor volume when they were grouped and administered, and Vt was the tumor volume at the time of measurement.
The relative proliferation rate T/C (%) was calculated as: […].
TRTV: RTV of the treatment group; CRTV: RTV of the control group.
P<0.05 was considered as significant difference.

[2] = for Day 22 Mortality: single IP dose (mg/kg)
Protocol: To determine the growth inhibition effect and toxicity of the cytidine derivative samples of the present invention on the transplanted tumor of nude mice bearing colon cancer HCT-116.
The corresponding amount of test substance was taken in a 5 mL glass tube and dissolved in ethanol with a 5 mm magnetic stirrer for stirring. After dissolving completely, Cremophor EL was added with continuous stirring. The marked amount of saline was added and mixed evenly before use. The volume ratio of ethanol, Cremophor EL, and physiological saline was 5:5:90.
Varieties and lines; Balb/c Nude mice; level: SPF; sex: female.
4.2 Animal inoculation and grouping: Each nude mouse was inoculated subcutaneously with 0.1 mL of cell suspension (3×10^6 cell/mouse) at right side of hind limb in a sterile stale. When the tumor grew to about 60-150 mm^3, the nude mice with similar tumor volume and desirable shape were selected (it would be better to select single spherical shape, no irregular shape or multiple tumors grouped together) for grouping, 6 mice a group. The grouping is as follows:
The control group, namely the model control group, was injected with a mixture of ethanol, Cremophor EL, and saline (5:5:90).
Those mice were weighed three times a week.
All clinical symptoms of each animal should be recorded at the beginning of the test and during the test. The observations should be made at the same time each day.
An animal would be killed by CO2 when its weight loss was more than 20%, when it was about to die, or when its tumor volume exceeded 2800 mm^3. The tumor was separated and weighed, and the animal was autopsied and observed to evaluate and record whether there were pathological changes in the organs.
The data were expressed as Mean±SEM unless specially provided; Non-pairing T test was performed for the data between the two groups. P<0.05 was considered as significant difference.

[3] = Day 0, G3-G9 groups, single IP dose, Mean±SEM
[4] = Day 4, G3-G9 groups, single IP dose, Mean±SEM
[5] = Day 6, G3-G9 groups, single IP dose, Mean±SEM
[6] = Day 8, G3-G9 groups, single IP dose, Mean±SEM
[7] = Day 11, G3-G9 groups, single IP dose, Mean±SEM
[8] = Day 13, G3-G9 groups, single IP dose, Mean±SEM
[9] = Day 15, G3-G9 groups, single IP dose, Mean±SEM
[10] = Day 18, G3-G9 groups, single IP dose, Mean±SEM
[11] = Day 20, G3-G9 groups, single IP dose, Mean±SEM
[12] = Day 22, G3-G9 groups, single IP dose, Mean±SEM

Compound: CC(C)(C)OC(=O)Nc1ccn([C@@H]2O[C@H](COC(=O)Cn3cnc([N+](=O)[O-])c3)[C@@H](O)C2(F)F)c(=O)n1 [Compound G9, 5′-O-[2-(4-nitro-1H-imidazole)acetate]-4-N-(tert-butoxycarbonyl)-2′-deoxy-2′,2′-difluorocytidine]
- Day 0 (RTV) [1, 3]: 1.00 ± 0.00
- Tumor volume, Day 0 [1, 3]: 42.31 ± 7.52** mm^3
- Day 4 (TGI %) ([1]; Day 4, G3-G9 groups, single IP dose): 80.77%
- Day 4 (RTV) [1, 4]: 1.21 ± 0.16
- Tumor volume, Day 4 [1, 4]: 51.25 ± 10.24** mm^3
- Day 6 (TGI %) ([1]; Day 6, G3-G9 groups, single IP dose): 80.67%
- Day 6 (RTV) [1, 5]: 1.82 ± 0.40
- Tumor volume, Day 6 [1, 5]: 81.69 ± 23.70** mm^3
- Day 8 (TGI %) ([1]; Day 8, G3-G9 groups, single IP dose): 79.22%
- Day 8 (RTV) [1, 6]: 2.72 ± 0.82
- Tumor volume, Day 8 [1, 6]: 109.19 ± 29.60** mm^3
- Day 11 (TGI %) ([1]; Day 11, G3-G9 groups, single IP dose): 76.07%
- Day 11 (RTV) [1, 7]: 4.91 ± 1.08
- Tumor volume, Day 11 [1, 7]: 192.42 ± 37.84** mm^3
- Day 13 (TGI %) ([1]; Day 13, G3-G9 groups, single IP dose): 72.93%
- Day 13 (RTV) [1, 8]: 8.16 ± 1.87
- Tumor volume, Day 13 [1, 8]: 314.26 ± 60.92** mm^3
- Day 15 (TGI %) ([1]; Day 15, G3-G9 groups, single IP dose): 60.81%
- Day 15 (RTV) [1, 9]: 13.83 ± 2.98
- Tumor volume, Day 15 [1, 9]: 553.69 ± 115.02** mm^3
- Day 18 (TGI %) ([1]; Day 18, G3-G9 groups, single IP dose): 51.00%
- Day 18 (RTV) [1, 10]: 23.10 ± 5.36
- Tumor volume, Day 18 [1, 10]: 907.03 ± 187.09** mm^3
- Day 20 (TGI %) ([1]; Day 20, G3-G9 groups, single IP dose): 42.39%
- Day 20 (RTV) [1, 11]: 31.85 ± 7.62
- Tumor volume, Day 20 [1, 11]: 1221.09 ± 228.29** mm^3
- Day 22 (RTV) [1, 12]: 42.35 ± 10.48
- Tumor volume, Day 22 [1, 12]: 1607.01 ± 297.45** mm^3
- relative tumor volume compared with the model control group ([1]; G4 and G5 Day 4 to Day 18, G7 Day 4 to Day 15 (p<0.05-0.01), G9 only Day 4 (p<0.05)): reduced significantly
- maximum value of TGI % ([1]; day of maximum: G3 Day 8, G4 Day 11, G5 Day 11, G9 Day 4, G7 Day 8, single IP): 80.77%
- Weight change rate, Day 0 [2, 3]: 0.00 ± 0.00%
- Weight of mice, Day 0 [2, 3]: 20.55 ± 0.56 g
- Weight change rate, Day 4 [2, 4]: −0.08 ± 3.14%
- Weight of mice, Day 4 [2, 4]: 20.48 ± 0.57 g
- Weight change rate, Day 6 [2, 5]: 2.53 ± 2.85%
- Weight of mice, Day 6 [2, 5]: 21.02 ± 0.48 g
- Weight change rate, Day 8 [2, 6]: 3.54 ± 3.17%
- Weight of mice, Day 8 [2, 6]: 21.22 ± 0.51 g
- Weight change rate, Day 11 [2, 7]: 5.18 ± 2.98%
- Weight of mice, Day 11 [2, 7]: 21.55 ± 0.43 g
- Weight change rate, Day 13 [2, 8]: 7.65 ± 3.18%
- Weight of mice, Day 13 [2, 8]: 22.05 ± 0.42 g
- Weight change rate, Day 15 [2, 9]: 5.50 ± 3.26%
- Weight of mice, Day 15 [2, 9]: 21.60 ± 0.33 g
- Weight change rate, Day 18 [2, 10]: 3.38 ± 3.55%
- Weight of mice, Day 18 [2, 10]: 21.17 ± 0.46 g
- Weight change rate, Day 20 [2, 11]: 2.91 ± 3.85%
- Weight of mice, Day 20 [2, 11]: 21.05 ± 0.36 g
- Weight change rate, Day 22 [2, 12]: 8.18 ± 4.15%
- Weight of mice, Day 22 [2, 12]: 22.13 ± 0.47 g
- Day 22 Mortality ([2]; Day 22): 0%
- clinical symptoms ([2]; after single IP dose, compared with model control group): no significant differences in clinical symptoms

Compound: Cl.Nc1ccn([C@@H]2O[C@H](CO)[C@@H](O)C2(F)F)c(=O)n1 [Compound G1, 2′deoxy-2′,2′-difluorocytidine hydrochloride, reference compound]
- Day 22 Mortality ([2]; Day 22): 100%
